Reference: article PMC12381781, “Structural and functional insights into the selective inhibition of mutant tau aggregation by purpurin and oleocanthal in frontotemporal dementia” (Protein Science : A Publication of the Protein Society, 2025)
pKd: −log10 of the molar value. “Also recorded” adds a separate entry of the source. Read-outs that look alike come from different tables or passages of the source.

Legend:
R2R3 (P301L) tau peptide = R2R3 (P301L) tau peptide (Homo sapiens, UniProt P10636, P618L); assay: SPR titration cycle kinetics, immobilized R2R3 (P301L) peptide; type: binding
R2R3 (P301L) tau peptide, sequence (P10636 592-653 P618L): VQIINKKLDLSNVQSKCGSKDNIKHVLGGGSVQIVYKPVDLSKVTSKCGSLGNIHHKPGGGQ
Protocol: SPR experiments were conducted using the Sierra® SPR‐24 Pro system (Bruker Daltonics, Bremen, Germany), featuring a gold‐coated microfluidic array (24 detection spots, 3 × 8 format). Data acquisition and kinetic analysis were performed using SPR Analyzer 4 software.
All experiments were conducted at 25°C using PBS (pH 7.4) supplemented with 0.05% Tween‐20 and 5% DMSO as the running buffer to ensure assay reproducibility. Assay components, including 96‐well microtiter plates (Part # 1862984; Burker) and Microplate and Reservoir Sealer (Part #1862985; Burker), were used for sample handling and were compatible with the Sierra SPR®‐24 Pro system (Bruker Daltonics, Billerica, MA, USA).
WT and mutant (P301L, V287I, and N279K) tau peptides were dissolved in 10 mM sodium acetate buffer (pH 5.0; Burker) and immobilized onto High‐Capacity Amine Sensor Surfaces (Part #1862614; Bruker) using the Amine Coupling Kit (Part #1862634; Bruker). The sensor surface was preconditioned with a Surface Elution Buffer (Part #1862656; Bruker Daltonics) and 0.1M HCl to remove contaminants and improve binding specificity.
The surface was activated using 400 mM 1‐ethyl‐3‐(3‐dimethylaminopropyl) carbodiimide (Burker) and 50 mM N‐hydroxysuccinimide (Burker), enabling covalent attachment of tau peptides. Unreacted binding sites were blocked with 1M ethanolamine‐HCl (pH 8.5; Burker) to minimize nonspecific interactions. For each experiment, specific sensor spots (A/B/C) on channels 1–8 were designated for tau‐analyte interactions, with corresponding reference spots on the same channel for baseline correction. DMSO calibration solutions (4.6%, 4.8%, 5%, 5.2%, and 5.4%) were prepared for double referencing to compensate for DMSO solvent effects.
PUR and OLC were prepared in PBS (pH 7.4) supplemented with 0.05% Tween‐20 and 5% DMSO. Compound interactions with tau peptides were pre‐screened using a concentration range of 1–100 μM, and subsequent binding kinetics were evaluated at optimized concentrations. For kinetic studies, PUR was tested at […], while OLC was tested at 25–100 μM using two‐fold serial dilutions. Each analyte was sequentially injected, and association and dissociation phases were monitored to determine kinetic parameters.
SPR binding kinetics were assessed using the titration cycle kinetics (TCK) assay, which included consecutive association phases followed by a single dissociation phase. Pre‐assay simulations using the Kinetic Simulator feature of SPR Analyzer 4 software were used to optimize analyte concentration ranges and association/dissociation times. A reference blank injection was included for double referencing, and a single dissociation curve was recorded for the highest analyte concentration.
Sensorgrams were analyzed using the Kinetic Titration model, which was integrated into the global kinetic fitting model of the SPR Analyzer 4 software. This approach allowed for baseline correction and improved the reliability of kinetic parameters, including the Kon, Koff, and KD.
TCK‐derived kinetic parameters were compared across multiple runs and confirmed using Multi Injection Cycle Kinetics to validate reproducibility and accuracy.

[1] = test system: Tau RD P301S FRET Biosensor cells; assay: Biosensor cell seeding assay, post-transduction treatment; type: cell-based; details: for concentrations at which seeding was significantly reduced, post-transduction treatment: P301L fibrils transduced 24 h, then compound for 24 h; for seeding (CFP/YFP inclusions) after post-transduction treatment: WT fibrils transduced 24 h, then compound 0 to 10 μM for 24 h
Protocol: To further evaluate whether PUR and OLC can suppress pathological tau propagation, we performed post‐transduction treatment assays in Tau RD P301S FRET Biosensor cells. WT or P301L tau fibrils were first transduced into cells for 24 h, followed by treatment with PUR or OLC for an additional 24 h. Prior MTS assays confirmed that these concentrations were non‐toxic to biosensor cells (Figure S16).
Tau peptides were aggregated with or without PUR or OLC in a 7.4 pH aggregation buffer without ThT. After 48 h, the contents of each well were pooled to a final total volume of 120 μL. The concentration of the pooled Aggregation Reaction Products was measured using the Pierce™ BCA Protein Assay Kit (Thermo Fisher Scientific Inc., Cat. # 23225). The reaction products were standardized for cell transduction to a final concentration of 100 nM for both control and drug‐treated samples. The pooled aggregation mixture was sonicated using a Branson Ultrasonic™ Sonifier Cup Horns (Marshall Scientific, Hampton, NH, USA) at 30% amplitude (15 s ON and 15 s OFF for 1 min) to fragment larger aggregates into smaller ones, facilitating consistent transduction.
Tau RD P301S FRET Biosensor cells were plated at 5 × 10^3 cells per well in PhenoPlate 384‐well, black, optically clear flat‐bottom plates (Revvity; Part # 6057302) pre‐coated with 50 μg/mL Poly‐ᴅ‐Lysine (Sigma‐Aldrich, Cat. # P6407). After plating, cells were incubated for 30 min at room temperature to promote better cell spreading before returning the plates to the incubator.
The next day, cells were transduced with 100 nM of aggregation mixture, which were either: (i) prepared in the absence (control) or presence of 10 μM PUR or OLC for co‐aggregation studies (Figure 5), or (ii) prepared exclusively in the absence of compounds for post‐transduction treatment studies (Figure 6). The aggregation mixtures were premixed with 0.2 μL per well TurboFect™ Transfection Reagent (Thermo Fisher Scientific Inc., Cat. # R0533) in 10 μL Opti‐MEM™ (Thermo Fisher Scientific Inc., Cat. #11058021) and added to cells.
For co‐aggregation studies (Figure 5), cells were cultured for 48 h after transduction before processing for imaging. […]
Cells were imaged on a Cell Voyager 7000S high‐content imaging system (Yokogawa, Tokyo, Japan) with a 20× objective. CFP/YFP inclusions of seeded tau were detected using a 488 nm laser line (Ex = 460–490 nm, Em = 500–550 nm), and Hoechst‐stained nuclei were detected using a 405 nm laser line (Ex = 360–400 nm, Em = 410–480 nm). […] Image analysis was performed using Signals Image Artist (Revvity) to quantify the number of cells (Hoechst‐stained nuclei) and intracellular CFP/YFP inclusions. […]

Tau Biosensor cells = assay: MTS cytotoxicity assay, Tau Biosensor cells; type: cell-based; details: 0-100 µM, 72 h
Protocol: Figure S16. Cytotoxic activity of PUR and OLC. Tau Biosensor and CCRF-CEM (human leukemic lymphoblast) cells were treated with increasing concentrations (0-100 µM) of PUR and OLC for 72 h. Cell viability was then assessed using the MTS assay. CCRF-CEM (human leukemic lymphoblasts) cells, known for their high sensitivity to cytotoxic agents ^1, were used as positive controls. […] Calculated IC50 values are indicated in the graphs. Mean ± SEM (n = 3).

## O=C1c2ccccc2C(=O)c2c(O)c(O)cc(O)c21 [PUR, purpurin]
R2R3 (P301L) tau peptide
  pKd: 4.83
R2R3 (P301L) tau peptide; SPR, R2R3 P301L
  kon: 26.4 M⁻¹ s⁻¹
R2R3 (P301L) tau peptide; SPR, R2R3 P301L, read-out: Koff
  koff: 0.00039 s⁻¹
[1]
  concentrations at which seeding was significantly reduced, post-transduction treatment: ≥ 1.25 µM
  seeding (CFP/YFP inclusions) after post-transduction treatment: significantly reduced seeding at all tested concentrations
Tau Biosensor cells
  cytotoxicity, cell viability (MTS): neither PUR nor OLC was cytotoxic; also recorded: non‐toxic

## C/C=C(/C=O)[C@@H](CC=O)CC(=O)OCCc1ccc(O)cc1 [OLC, oleocanthal]
R2R3 (P301L) tau peptide; SPR, R2R3 P301L
  Kon: 52.36 M⁻¹ s⁻¹
  koff: 8.26e-05 s⁻¹
R2R3 (P301L) tau peptide; SPR, R2R3 P301L peptide immobilized, 25°C, PBS pH 7.4, read-out: KD
  pKd: 5.80
[1]
  concentrations at which seeding was significantly reduced, post-transduction treatment: ≥ 1.25 µM
  seeding (CFP/YFP inclusions) after post-transduction treatment: significantly reduced seeding at all tested concentrations
Tau Biosensor cells
  cytotoxicity, cell viability (MTS): neither PUR nor OLC was cytotoxic; also recorded: non‐toxic
